Results taken from US20090054376A1, “BENZOFURAN DERIVATIVES WITH THERAPEUTIC ACTIVITIES” (Pharmos Corporation, priority 2005, published 2009).

Assays:
Human CB2 Receptor = molecular target: T1, Human CB2 Receptor (Homo sapiens, UniProt P34972); assay: [35S]GTPγS-binding assay, hCB2; type: biochemical; conditions: GTPγS, Human CB2 Receptor, NB = no binding
T1 construct: host or cells: Sf9 or HEK-293 cells (membranes)

[1] = system: mechanical allodyna after chronic constriction of the sciatic nerve; assay: Neuropathic pain, chronic constriction of the sciatic nerve (CCI); type: in vivo, Male Sprague Dawley rats; conditions: four and a half hour after administration
Description: The analgesic activity of compounds of the invention was assessed in a chronic constriction induced (CCI) model of neuropathic pain. […] The development of mechanical allodyna was monitored using a Dynamic Plantar Sesthesiomether as described in Example 18. This apparatus is an automated version of the classical von Frey filaments' test.
Pre-surgery baseline values were ascertained as the mean of 2 pre-surgery values. Once the baseline values are established, the animals were surgically prepared by constricting the right sciatic nerve with 4-0 chromic cat gut loose ligatures. On day 11 post-operation, the animals that have developed mechanical allodyna were arbitrarily allocated to the various treatment groups based on the pre-surgery values.
The design was randomized, performed in a masked fashion as to whether drug or vehicle is being given. Male Sprague Dawley rats (average body weight 240 g, Harlan, Israel), were allowed to acclimatize to the behavioral testing equipment prior to testing. On the testing day, the animals, at least six per treatment group, were administered the compounds and controls at a volume dosage of 5 ml/kg. Fifteen minutes later, the mechanical stimulus was applied and the force, measured in grams, causing a withdrawal response for each of the ipsilateral and contralateral hind paws was evaluated.
Results are expressed as mean±SEM for each treatment group and the differences among those groups are analyzed by analysis of variance (ANOVA) followed by post-hoc Tukey's test. A value of p<0.05 is considered to be statistically significant. Thereafter the difference in the force to be applied to the injured paw as compared to the normal paw was calculated. Δforce, expressed in grams, was measured at baseline and 1 and 4.5 hours after treatment.

[2] = system: PLP induced remitting-relapsing EAE; assay: PLP induced remitting-relapsing EAE; type: in vivo, SJL female mice; conditions: for average clinical score on the first peak of the disease: vehicle 3.63±0.25; for average clinical score at the second peak of the disease (first relapse): vehicle 3.14±0.48; for reduction in average clinical score at peak as compared to vehicle: first peak; for AUC of clinical score: over 23 days, vehicle 54.13±9.58; for reduction in average clinical score as compared to vehicle: second peak
[3] = system: CFA induced rheumatoid arthritis; assay: CFA induced rheumatoid arthritis; type: in vivo, Female Lewis rats
Description: Female Lewis rats (125 g average body weight, Harlan, Israel), at least eight per treatment group were used in this study. CFA was prepared by combining 100 mg of Mycobacterium Tuberculosis (Difco) with 5 ml of incomplete Freund's adjuvant and grinding for about 3 minutes the resulting mixture until a brownish suspension was obtained. The CFA suspension was administered s.c. at the base of the tail, 0.2 ml/animal. Three tests were performed to evaluate the pain and inflammation caused by the disease. These tests were performed before CFA injection to establish baseline values and 14, 21 and 28 days after disease induction. Compounds of the invention were administered daily for fourteen days p.o. at a dose of 10 mg/kg starting on day 14, after disease onset. A group of animals treated with vehicle only at 5 ml/kg served as control.
The parameters monitored were as detailed in Example 18 and include paw edema and redness, and response to thermal and mechanical pain stimuli. At the end of the treatment period the animals were euthanized. The paws were cut and stored in a solution of 4% formalin until histopathological evaluation.
The differences among various treatment groups between the severity of the clinical signs, as expressed by paw swelling and redness, as well as the differences in pain responses, as expressed by Latency Time (sec) and Force (g) needed to observe withdrawal of the paw following thermal and mechanical stimuli, and finally the tissue damage, as expressed by the histological scores, were compared using analysis of variance ANOVA followed by post-hoc t-Test. A value of p<0.05 is considered to be statistically significant.

T1 sequence (P34972 whole entry): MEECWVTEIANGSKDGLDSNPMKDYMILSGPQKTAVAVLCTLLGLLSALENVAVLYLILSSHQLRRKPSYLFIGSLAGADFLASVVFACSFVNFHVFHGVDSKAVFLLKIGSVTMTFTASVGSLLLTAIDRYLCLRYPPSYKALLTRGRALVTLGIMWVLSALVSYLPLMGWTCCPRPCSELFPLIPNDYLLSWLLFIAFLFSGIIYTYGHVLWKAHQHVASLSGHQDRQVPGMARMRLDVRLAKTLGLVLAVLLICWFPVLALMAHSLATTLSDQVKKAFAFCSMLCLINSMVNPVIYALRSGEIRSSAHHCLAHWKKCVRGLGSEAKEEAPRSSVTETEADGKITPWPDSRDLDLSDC

CCCCCCC(C)(C)c1cc(O)c2c(c1)OC1C(O)CCCCC21 (stereo not drawn) [Compound C7S-2, 2-(1,1-dimethylheptyl)-5,6,7,8,9,9a-hexahydro-4bH-10-oxa-benzo[α]azulen-4,9-diol]
EC50 (Human CB2 Receptor): 227 nM | Emax (Human CB2 Receptor; upper plateau of curve): 26% | inhibition of the pain behavior (expressed in Δforce) as compared to baseline ([1]; 0.005 mg/kg i.v.): 58% | inhibition of the pain behavior (expressed in Δforce) as compared to baseline ([1]; 0.01 mg/kg i.v.): 67% | inhibition of the pain behavior (expressed in Δforce) as compared to baseline ([1]; 0.025 mg/kg i.v.): 84% | inhibition of the pain behavior (expressed in Δforce) as compared to baseline ([1]; 0.5 mg/kg i.v.): 92% | average clinical score on the first peak of the disease ([2]; 5 mg/kg p.o. daily for 10 days): 2.78±0.15 | average clinical score at the second peak of the disease (first relapse) ([2]; 5 mg/kg p.o.): 1.25±0.41 | average clinical score on the first peak of the disease ([2]; 10 mg/kg i.p. daily for 10 days): 2.43±0.26 | average clinical score at the second peak of the disease (first relapse) ([2]; 10 mg/kg i.p.): 0.57±0.11 | reduction in average clinical score at peak as compared to vehicle ([2]; 5 mg/kg p.o.): 23% | reduction in average clinical score at peak as compared to vehicle ([2]; 10 mg/kg i.p.): 33% | reduction of overall severity of the disease (expressed in AUC) ([2]; i.p.): 64% | AUC of clinical score ([2]; 5 mg/kg p.o.): 28.13±5.74 | AUC of clinical score ([2]; 10 mg/kg i.p.): 19.43±2.51 | reduction of overall severity of the disease (expressed in AUC) ([2]; p.o.): 48% | reduction in average clinical score as compared to vehicle ([2]; i.p.): 82% | reduction in average clinical score as compared to vehicle ([2]; p.o.): 60% | decrease in clinical score as compared to first day of treatment ([3]; after two weeks of treatment, 10 mg/kg p.o.): 44% | average clinical score regarding the edema ([3]; after two weeks of treatment, 10 mg/kg p.o. daily, vehicle 6.67±1.85): 3.29±0.97 | average clinical score regarding the edema ([3]; day 14, at initiation of treatment, 10 mg/kg p.o. group, vehicle 6.00±1.18): 5.86±1.70 | difference in average clinical score in favor of treated animals ([3]; day 21, after a week of treatment, 10 mg/kg p.o. daily, vs vehicle): 1.89 unit | Force increase over baseline ([3]; day 28, 10 mg/kg p.o.): about 63% | Latency increase over baseline values of day 14 ([3]; day 28, 10 mg/kg p.o.): more than 32% | Latency prolonged following thermal stimulus ([3]; day 28 vs day 14, 10 mg/kg p.o.): about 5 seconds | increase of Force needed to elicit a withdrawal response ([3]; day 28 vs day 14, 10 mg/kg p.o., mechanical stimulus): 11.1 grams
